Laboratory results as given in patent US20250288509A1, “Composition for Promoting Photoprotection and Cutaneous Regeneration through Sequential Photonic Transfer (SPT)” (priority 2022, published 2025).

Tests used:
[1] = Spectrofluorimetric quantification of emission in hydroalcoholic standard solutions; format: physicochemical
Excerpt: (§1) For the in vitro validation of the Sequential Photonic Transfer (SPT) process, different molecules belonging to the groups of plant-derived compounds previously identified as potential targets have been selected. In particular, the selected molecules are morin and quercetin (flavonoids), cannabinol (CBN), cannabidiol (CBD), and cannabichromene (CBC) (cannabinoids), and chlorophyll A, which are fully representative examples of each target compound group. […] Flavonoids typically have absorption peaks around 260 and 380 nm, while cannabinoids have absorption peaks between 230 and 300 nm (FIG. 3A). […] For these compounds, their emission capacity at 460 nm (blue light) when excited by 280 and 320 nm light (UVB/A) and their emission capacity at 625 nm (red light) when excited by 460 nm light have been evaluated using spectrofluorimetry.
(§2) FIG. 3. […] Spectrofluorimetric quantification in hydroalcoholic standard solutions of emission at 460 nm (blue region of the electromagnetic spectrum) of different compounds after excitation at 280 or 320 nm (UVB/A) (C) and of emission at 625 nm (red region of the electromagnetic spectrum) after excitation at 460 nm (D) (Mn: Morin; Qc: Quercetin; CBD: cannabidiol; CBN: cannabinol; CBC: cannabichromene; Cl: chlorophyll A).

primary fibroblasts = experiment: Summary of examples: UVB radiation of primary fibroblasts; format: cell-based; conditions: summary statement on the examples
[2] = Continuous absorption spectra of flavonoids, cannabinoids and chlorophylls; format: physicochemical; conditions: continuous absorption spectrum, FIG. 3A/3B
Excerpt: as §1, §2

[3] = In vitro ROS production by colorimetric Nitro Blue Tetrazolium (NBT) oxidation in hydroalcoholic solution; conditions: excited with UV light (310 nm), FIG. 4
Excerpt: NBT is a specific molecular sensor for superoxide anion production, which is the first type of ROS produced during the reduction of molecular oxygen to generate water. In the presence of superoxide anion, NBT, a colorless molecule in its reduced state, oxidizes to form a chromophore with an absorption peak at 540 nm. The degree of oxidation, and therefore the absorbance at 540 nm, is directly proportional to ROS production. […] However, the combination of flavonoids/cannabinoids, chlorophyll A, and PpIX excited with UV light (310 nm) induces a potent and significant ROS production equivalent to that obtained by exciting PpIX with red light (FIG. 4).
FIG. 4. Quantification of in vitro ROS production measured as absorbance at 540 nm of Nitro Blue Tetrazolium (NBT) compound oxidized by […] production in hydroalcoholic solutions of different compound combinations under basal conditions or excited with UV (310 nm) or red (635 nm) light. Results are expressed as mean+/−standard deviation of three independent experiments. *, […]; ***, P≤0.01 (PpIX: Protoporphyrin IX; Mn: Morin; CBD: cannabidiol; Cl: chlorophyll A).

Structure (SMILES) | emission at 460 nm (blue light) ([1]; excited by 280 and 320 nm light (UVB/A), FIG. 3C) | emission at 625 nm (red light) ([1]; excited by 460 nm light (blue), FIG. 3D) | protection of cells from UVB radiation (primary fibroblasts) | stimulation of proliferation and extracellular matrix protein synthesis (primary fibroblasts) | absorption peaks [2] | ROS production (NBT oxidation, absorbance at 540 nm) [3]
C=Cc1c(C)c2cc3nc(c4c5[n-]c(cc6nc(cc1[n-]2)C(C)=C6CC)c(C)c5C(=O)[C@@H]4C(=O)OC)[C@@H](CCC(=O)OC/C=C(\C)CCC[C@H](C)CCC[C@H](C)CCCC(C)C)[C@@H]3C.[Mg+2] [chlorophyll A] | no emission of blue light | strong emission of red light | neither capable of protecting against UVB radiation | nor stimulating cells in any way | around 450 nm | unable to induce significant NBT oxidation
C=Cc1c(C)c2cc3nc(c4c5[n-]c(cc6nc(cc1[n-]2)C(C=O)=C6CC)c(C)c5C(=O)[C@@H]4C(=O)OC)[C@@H](CCC(=O)OC/C=C(\C)CCC[C@H](C)CCC[C@H](C)CCCC(C)C)[C@@H]3C.[Mg+2] [chlorophyll B] | – | – | – | – | around 450 nm | –
